In PubChem BioAssay (NCI):
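Protocol summary: plate cells (96-well), add compound at 5 concentrations, incubate 48 h, interpolate endpoints linearly. TGI: concentration producing complete growth inhibition.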

Tests used:
Experiment in all cases: NCI anticancer screen, dose series, 48 h
SK-MEL-2 melanoma = system: SK-MEL-2 melanoma
NCI-H522 lung = system: NCI-H522 lung
SF-295 CNS = system: SF-295 CNS
UO-31 renal = system: UO-31 renal
TK-10 renal = system: TK-10 renal
EKVX NSCLC = system: EKVX NSCLC
786-0 renal = system: 786-0 renal
SK-MEL-5 melanoma = system: SK-MEL-5 melanoma
SNB-75 CNS = system: SNB-75 CNS
SF-268 CNS = system: SF-268 CNS
OVCAR-8 ovarian = system: OVCAR-8 ovarian
HCT-116 colon = system: HCT-116 colon
OVCAR-4 ovarian = system: OVCAR-4 ovarian
MDA-MB-231 breast = system: MDA-MB-231 breast
SW-620 colon = system: SW-620 colon
LOX IMVI melanoma = system: LOX IMVI melanoma
SN12C renal = system: SN12C renal
SK-OV-3 ovarian = system: SK-OV-3 ovarian
HCT-15 colon = system: HCT-15 colon
NCI/ADR-RES ovarian = system: NCI/ADR-RES ovarian
KM12 colon = system: KM12 colon
IGROV1 ovarian = system: IGROV1 ovarian
UACC-257 melanoma = system: UACC-257 melanoma
A498 renal = system: A498 renal
OVCAR-3 ovarian = system: OVCAR-3 ovarian
SK-MEL-28 melanoma = system: SK-MEL-28 melanoma
MCF7 breast = system: MCF7 breast
PC-3 prostate = system: PC-3 prostate
HL-60(TB) leukemia = system: HL-60(TB) leukemia
A549 NSCLC = system: A549 NSCLC
SNB-19 CNS = system: SNB-19 CNS
MDA-MB-435 = system: MDA-MB-435
HCC-2998 colon = system: HCC-2998 colon
U251 CNS = system: U251 CNS
HS 578T breast = system: HS 578T breast
RXF 393 renal = system: RXF 393 renal
M14 melanoma = system: M14 melanoma
ACHN renal = system: ACHN renal
HOP-62 NSCLC = system: HOP-62 NSCLC
RPMI-8226 leukemia = system: RPMI-8226 leukemia
SF-539 CNS = system: SF-539 CNS
UACC-62 melanoma = system: UACC-62 melanoma
MDA-N = system: MDA-N
BT-549 breast = system: BT-549 breast
HT29 colon = system: HT29 colon
CAKI-1 renal = system: CAKI-1 renal
SR leukemia = system: SR leukemia
COLO 205 colon = system: COLO 205 colon
NCI-H226 lung = system: NCI-H226 lung
MALME-3M melanoma = system: MALME-3M melanoma
HOP-92 NSCLC = system: HOP-92 NSCLC
DU-145 prostate = system: DU-145 prostate
MOLT-4 leukemia = system: MOLT-4 leukemia
OVCAR-5 ovarian = system: OVCAR-5 ovarian
NCI-H23 lung = system: NCI-H23 lung
T-47D breast = system: T-47D breast
K-562 leukemia = system: K-562 leukemia
CCRF-CEM leukemia = system: CCRF-CEM leukemia
NCI-H460 lung = system: NCI-H460 lung

`CC1OC(Oc2c(-c3cc(O)c(O)c(O)c3)oc3cc(O)cc(O)c3c2=O)C(O)C(O)C1O` (centres undefined) was tested, and the TGI (SK-MEL-2 melanoma) was > 100 µM, the TGI (NCI-H522 lung) was > 100 µM and the TGI (SF-295 CNS) was > 100 µM. For the same molecule, the TGI (UO-31 renal) was > 100 µM, the TGI (TK-10 renal) was > 100 µM and the TGI (EKVX NSCLC) was > 100 µM. The TGI (786-0 renal) was > 100 µM, the TGI (SK-MEL-5 melanoma) was > 100 µM and the TGI (SNB-75 CNS) was > 100 µM. For the same molecule, the TGI (SF-268 CNS) was > 100 µM, the TGI (OVCAR-8 ovarian) was > 100 µM and the TGI (HCT-116 colon) was > 100 µM. The TGI (OVCAR-4 ovarian) was > 100 µM, the TGI (MDA-MB-231 breast) was > 100 µM and the TGI (SW-620 colon) was > 100 µM. For the same molecule, the TGI (LOX IMVI melanoma) was > 100 µM, the TGI (SN12C renal) was > 100 µM and the TGI (SK-OV-3 ovarian) was > 100 µM. The TGI (HCT-15 colon) was > 100 µM, the TGI (NCI/ADR-RES ovarian) was > 100 µM and the TGI (KM12 colon) was > 100 µM. The TGI (IGROV1 ovarian) was > 100 µM, the TGI (UACC-257 melanoma) was > 100 µM and the TGI (A498 renal) was > 100 µM. The TGI (OVCAR-3 ovarian) was > 100 µM, the TGI (SK-MEL-28 melanoma) was > 100 µM and the TGI (MCF7 breast) was > 100 µM. For the same molecule, the TGI (PC-3 prostate) was > 100 µM, the TGI (HL-60(TB) leukemia) was > 100 µM and the TGI (A549 NSCLC) was > 100 µM. For the same molecule, the TGI (SNB-19 CNS) was > 100 µM, the TGI (MDA-MB-435) was > 100 µM and the TGI (HCC-2998 colon) was > 100 µM. The TGI (U251 CNS) was > 100 µM, the TGI (HS 578T breast) was > 100 µM and the TGI (RXF 393 renal) was > 100 µM. For the same molecule, the TGI (M14 melanoma) was > 100 µM, the TGI (ACHN renal) was > 100 µM and the TGI (HOP-62 NSCLC) was > 100 µM. For the same molecule, the TGI (RPMI-8226 leukemia) was > 100 µM, the TGI (SF-539 CNS) was > 100 µM and the TGI (UACC-62 melanoma) was > 100 µM. For the same molecule, the TGI (MDA-N) was > 100 µM, the TGI (BT-549 breast) was > 100 µM and the TGI (HT29 colon) was > 100 µM. For the same molecule, the TGI (CAKI-1 renal) was > 100 µM, the TGI (SR leukemia) was > 100 µM and the TGI (COLO 205 colon) was > 100 µM. For the same molecule, the TGI (NCI-H226 lung) was > 100 µM, the TGI (MALME-3M melanoma) was > 100 µM and the TGI (HOP-92 NSCLC) was > 100 µM. For the same molecule, the TGI (DU-145 prostate) was > 100 µM, the TGI (MOLT-4 leukemia) was > 100 µM and the TGI (OVCAR-5 ovarian) was > 100 µM. For the same molecule, the TGI (NCI-H23 lung) was > 100 µM and the TGI (T-47D breast) was > 100 µM.
For `Cn1c(-c2ccccc2)cc(-c2cccs2)c1-c1ccsc1`, the TGI (SK-MEL-2 melanoma) was > 100 µM, the TGI (SF-295 CNS) was > 100 µM and the TGI (UO-31 renal) was > 100 µM. The TGI (TK-10 renal) was > 100 µM, the TGI (EKVX NSCLC) was > 100 µM and the TGI (786-0 renal) was > 100 µM. The TGI (SK-MEL-5 melanoma) was > 100 µM, the TGI (SNB-75 CNS) was > 100 µM and the TGI (SF-268 CNS) was > 100 µM. The TGI (OVCAR-8 ovarian) was > 100 µM, the TGI (HCT-116 colon) was > 100 µM and the TGI (OVCAR-4 ovarian) was > 100 µM. For the same molecule, the TGI (MDA-MB-231 breast) was > 100 µM, the TGI (SW-620 colon) was > 100 µM and the TGI (LOX IMVI melanoma) was > 100 µM. The TGI (SN12C renal) was > 100 µM, the TGI (SK-OV-3 ovarian) was > 100 µM and the TGI (HCT-15 colon) was > 100 µM. The TGI (NCI/ADR-RES ovarian) was > 100 µM, the TGI (KM12 colon) was > 100 µM and the TGI (IGROV1 ovarian) was > 100 µM. The TGI (UACC-257 melanoma) was > 100 µM, the TGI (A498 renal) was > 100 µM and the TGI (OVCAR-3 ovarian) was > 100 µM. For the same molecule, the TGI (MCF7 breast) was > 100 µM, the TGI (PC-3 prostate) was > 100 µM and the TGI (HL-60(TB) leukemia) was > 100 µM. The TGI (A549 NSCLC) was > 100 µM, the TGI (SNB-19 CNS) was > 100 µM and the TGI (MDA-MB-435) was > 100 µM. For the same molecule, the TGI (HCC-2998 colon) was > 100 µM, the TGI (U251 CNS) was > 100 µM and the TGI (HS 578T breast) was > 100 µM. The TGI (K-562 leukemia) was > 100 µM, the TGI (RXF 393 renal) was > 100 µM and the TGI (M14 melanoma) was > 100 µM. The TGI (CCRF-CEM leukemia) was > 100 µM, the TGI (ACHN renal) was > 100 µM and the TGI (HOP-62 NSCLC) was > 100 µM. For the same molecule, the TGI (RPMI-8226 leukemia) was > 100 µM, the TGI (SF-539 CNS) was > 100 µM and the TGI (UACC-62 melanoma) was > 100 µM. For the same molecule, the TGI (MDA-N) was > 100 µM, the TGI (BT-549 breast) was > 100 µM and the TGI (NCI-H460 lung) was > 100 µM. The TGI (HT29 colon) was > 100 µM, the TGI (CAKI-1 renal) was > 100 µM and the TGI (SR leukemia) was > 100 µM. The TGI (COLO 205 colon) was > 100 µM, the TGI (NCI-H226 lung) was > 100 µM and the TGI (HOP-92 NSCLC) was > 100 µM. The TGI (DU-145 prostate) was > 100 µM, the TGI (MOLT-4 leukemia) was > 100 µM and the TGI (OVCAR-5 ovarian) was > 100 µM. The TGI (NCI-H23 lung) was > 100 µM and the TGI (T-47D breast) was > 100 µM.
For `Cc1ccc(O)c(C2=CC3=NNC(=O)C3C(c3cccc(Br)c3)C2)c1` (centres undefined), the TGI (SK-MEL-2 melanoma) was > 75 µM, the TGI (SF-295 CNS) was 51.6 µM and the TGI (UO-31 renal) was > 75 µM. The TGI (TK-10 renal) was 41.3 µM, the TGI (EKVX NSCLC) was > 75 µM and the TGI (786-0 renal) was > 75 µM. The TGI (SK-MEL-5 melanoma) was > 75 µM, the TGI (SNB-75 CNS) was 70 µM and the TGI (SF-268 CNS) was > 75 µM. The TGI (OVCAR-8 ovarian) was 64.8 µM, the TGI (HCT-116 colon) was > 75 µM and the TGI (OVCAR-4 ovarian) was 37 µM. For the same molecule, the TGI (MDA-MB-231 breast) was 59.4 µM, the TGI (SW-620 colon) was > 75 µM and the TGI (LOX IMVI melanoma) was 27.3 µM. For the same molecule, the TGI (SN12C renal) was 63.5 µM, the TGI (SK-OV-3 ovarian) was 63.9 µM and the TGI (HCT-15 colon) was > 75 µM. The TGI (NCI/ADR-RES ovarian) was > 75 µM, the TGI (KM12 colon) was 39.5 µM and the TGI (IGROV1 ovarian) was > 75 µM. For the same molecule, the TGI (UACC-257 melanoma) was > 75 µM, the TGI (A498 renal) was > 75 µM and the TGI (OVCAR-3 ovarian) was 68.7 µM. For the same molecule, the TGI (SK-MEL-28 melanoma) was > 75 µM, the TGI (MCF7 breast) was 31.7 µM and the TGI (PC-3 prostate) was > 75 µM. For the same molecule, the TGI (HL-60(TB) leukemia) was > 75 µM, the TGI (A549 NSCLC) was > 75 µM and the TGI (SNB-19 CNS) was > 75 µM. The TGI (MDA-MB-435) was > 75 µM, the TGI (HCC-2998 colon) was 31.7 µM and the TGI (U251 CNS) was > 75 µM. The TGI (HS 578T breast) was > 75 µM, the TGI (K-562 leukemia) was > 75 µM and the TGI (RXF 393 renal) was 28.2 µM. The TGI (M14 melanoma) was > 75 µM, the TGI (CCRF-CEM leukemia) was > 75 µM and the TGI (ACHN renal) was > 75 µM. The TGI (HOP-62 NSCLC) was > 75 µM, the TGI (RPMI-8226 leukemia) was 72.8 µM and the TGI (SF-539 CNS) was > 75 µM. The TGI (UACC-62 melanoma) was 70.9 µM, the TGI (MDA-N) was > 75 µM and the TGI (BT-549 breast) was 64.1 µM. The TGI (NCI-H460 lung) was > 75 µM, the TGI (HT29 colon) was > 75 µM and the TGI (CAKI-1 renal) was > 75 µM. The TGI (SR leukemia) was > 75 µM, the TGI (COLO 205 colon) was 22.8 µM and the TGI (MALME-3M melanoma) was 71.1 µM. For the same molecule, the TGI (HOP-92 NSCLC) was > 75 µM, the TGI (DU-145 prostate) was > 75 µM and the TGI (MOLT-4 leukemia) was > 75 µM. The TGI (OVCAR-5 ovarian) was 68.5 µM, the TGI (NCI-H23 lung) was > 75 µM and the TGI (T-47D breast) was > 75 µM.
